Data taken from patent publication US6355799B1, “Substituted benzene compounds, process for their preparation, and herbicidal and defoliant compositions containing them” (ISK Americas Incorporated, priority 1997, dated 2002).

What was measured:
Assay type in all cases: in vivo
[1] = tested on: large crabgrass (Digitaria sanguinalis, DIGSA); experiment: Pre-emerge test, greenhouse herbicide activity screening; settings: pre-emerge, phytotoxicity rating 0-100 at 14 days after application
How it was run: (§1)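 Compounds in acetone were track-sprayed at 15-1000 g ai/ha (187 l/ha) on sandy loam pots: pre-emerge one day after seeding, post-emerge at 2-3 leaf stage with 0.25% v/v non-ionic surfactant. Phytotoxicity was rated 14 days later on a 0 (no damage) to 100 (complete death) scale.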

[2] = tested on: green foxtail (Setaria viridis, SETVI); experiment: as above; settings: pre-emerge, phytotoxicity rating 0-100 at 14 days after application
How it was run: as §1

[3] = tested on: barnyardgrass (Echinochloa crus-galli, ECHCG); experiment: as above; settings: pre-emerge, phytotoxicity rating 0-100 at 14 days after application
How it was run: as §1

[4] = tested on: johnsongrass (Sorghum halepense, SORHA); experiment: as above; settings: pre-emerge, phytotoxicity rating 0-100 at 14 days after application
How it was run: as §1

[5] = tested on: sicklepod (Cassia obtusifolia, CASOB); experiment: as above; settings: pre-emerge, phytotoxicity rating 0-100 at 14 days after application
How it was run: as §1

[6] = tested on: lambsquarters (Chenopodium album, CHEAL); experiment: as above; settings: pre-emerge, phytotoxicity rating 0-100 at 14 days after application
How it was run: as §1

[7] = tested on: velvetleaf (Abutilon theophrasti, ABUTH); experiment: as above; settings: pre-emerge, phytotoxicity rating 0-100 at 14 days after application
How it was run: as §1

[8] = tested on: ivyleaf morningglory (Ipomoea hederacea, IPOHE); experiment: as above; settings: pre-emerge, phytotoxicity rating 0-100 at 14 days after application
How it was run: as §1

[9] = tested on: upland rice (Oryza sp., var. Tebonnet, RICE); experiment: Pre-emerge test, crop safety; settings: crop damage, pre-emerge, phytotoxicity rating 0-100 at 14 days after application
How it was run: (§2)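 Fourteen days after spraying, crop and weed injury was graded visually from 0, no effect, to 100, every plant dead. Test substances were dissolved in acetone and applied at 15–1000 g ai/ha with a flat-fan nozzle. Application was either pre-emergence, one day after sowing, or post-emergence at the 2–3 leaf stage.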

[10] = tested on: field corn (Zea mays L., var. Dekalb 535, CORN); experiment: Pre-emerge test, crop safety; settings: crop damage, pre-emerge, phytotoxicity rating 0-100 at 14 days after application
How it was run: as §2

[11] = tested on: redroot pigweed (Amaranthus retroflexus, AMARE); experiment: Pre-emerge test, greenhouse herbicide activity screening; settings: pre-emerge, phytotoxicity rating 0-100 at 14 days after application
How it was run: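 Rating: 0–100 visual injury, 14 DAA. Application: acetone, 187 l/ha, 15–1000 g ai/ha, flat-fan track sprayer with nozzle 40–45 cm above soil or canopy. Post-emerge runs used 0.25% v/v surfactant on 2–3 leaf plants.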

[12] = tested on: upland rice (Oryza sp., var. Tebonnet, RICE); experiment: Post-emerge test, crop safety; settings: post-emerge, crop damage rating 0-100 at 14 days after application
How it was run: as §1

[13] = tested on: field corn (Zea mays L., var. Dekalb 535, CORN); experiment: Post-emerge test, crop safety; settings: post-emerge, crop damage rating 0-100 at 14 days after application
How it was run: as §1

[14] = tested on: large crabgrass (Digitaria sanguinalis, DIGSA); experiment: Post-emerge test, greenhouse herbicide activity screening; settings: post-emerge, phytotoxicity rating 0-100 at 14 days after application
How it was run: (§3)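 Herbicidal damage is scored 0 (none) to 100 (complete plant death) two weeks after a simulated field spray. Rates span 15–1000 g ai/ha, delivered in acetone at 187 l/ha. For post-emergence treatments, plants have 2–3 leaves and the spray carries 0.25% v/v non-ionic surfactant.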

[15] = tested on: green foxtail (Setaria viridis, SETVI); experiment: as above; settings: post-emerge, phytotoxicity rating 0-100 at 14 days after application
How it was run: as §3

[16] = tested on: barnyardgrass (Echinochloa crus-galli, ECHCG); experiment: as above; settings: post-emerge, phytotoxicity rating 0-100 at 14 days after application
How it was run: as §3

[17] = tested on: johnsongrass (Sorghum halepense, SORHA); experiment: as above; settings: post-emerge, phytotoxicity rating 0-100 at 14 days after application
How it was run: as §3

[18] = tested on: redroot pigweed (Amaranthus retroflexus, AMARE); experiment: as above; settings: post-emerge, phytotoxicity rating 0-100 at 14 days after application
How it was run: as §3

[19] = tested on: sicklepod (Cassia obtusifolia, CASOB); experiment: as above; settings: post-emerge, phytotoxicity rating 0-100 at 14 days after application
How it was run: as §3

[20] = tested on: lambsquarters (Chenopodium album, CHEAL); experiment: as above; settings: post-emerge, phytotoxicity rating 0-100 at 14 days after application
How it was run: as §3

[21] = tested on: velvetleaf (Abutilon theophrasti, ABUTH); experiment: as above; settings: post-emerge, phytotoxicity rating 0-100 at 14 days after application
How it was run: as §3

[22] = tested on: ivyleaf morningglory (Ipomoea hederacea, IPOHE); experiment: as above; settings: post-emerge, phytotoxicity rating 0-100 at 14 days after application
How it was run: as §3

## O=C(Nc1cc(Cl)ccc1-n1c(=O)n2n(c1=O)CCCC2)c1ccc2ccccc2c1 [9-19]
[1]; rate 63 g ai/ha
  Pre-emerge Herbicidal Activity DIGSA: 0
[1]; rate 250 g ai/ha
  Pre-emerge Herbicidal Activity DIGSA: 80
[2]; rate 63 g ai/ha
  Pre-emerge Herbicidal Activity SETVI: 0
[2]; rate 250 g ai/ha
  Pre-emerge Herbicidal Activity SETVI: 60
[3]; rate 63 g ai/ha
  Pre-emerge Herbicidal Activity ECHCG: 0
[3]; rate 250 g ai/ha
  Pre-emerge Herbicidal Activity ECHCG: 0
[4]; rate 63 g ai/ha
  Pre-emerge Herbicidal Activity SORHA: 0
[4]; rate 250 g ai/ha
  Pre-emerge Herbicidal Activity SORHA: 20
[5]; rate 63 g ai/ha
  Pre-emerge Herbicidal Activity CASOB: 0
[5]; rate 250 g ai/ha
  Pre-emerge Herbicidal Activity CASOB: 20
[6]; rate 63 g ai/ha
  Pre-emerge Herbicidal Activity CHEAL: 100
[6]; rate 250 g ai/ha
  Pre-emerge Herbicidal Activity CHEAL: 100
[7]; rate 63 g ai/ha
  Pre-emerge Herbicidal Activity ABUTH: 100
[7]; rate 250 g ai/ha
  Pre-emerge Herbicidal Activity ABUTH: 100
[8]; rate 63 g ai/ha
  Pre-emerge Herbicidal Activity IPOHE: 30
[8]; rate 250 g ai/ha
  Pre-emerge Herbicidal Activity IPOHE: 0
[9]; rate 63 g ai/ha
  Pre-emerge Herbicidal Activity RICE: 30
[9]; rate 250 g ai/ha
  Pre-emerge Herbicidal Activity RICE: 50
[10]; rate 63 g ai/ha
  Pre-emerge Herbicidal Activity CORN: 0
[10]; rate 250 g ai/ha
  Pre-emerge Herbicidal Activity CORN: 0
[11]; rate 63 g ai/ha
  Pre-emerge Herbicidal Activity AMARE: 100
[11]; rate 250 g ai/ha
  Pre-emerge Herbicidal Activity AMARE: 100
[12]; 63 g ai/ha
  Post-emerge Herbicidal Activity RICE: 15
[12]; 250 g ai/ha
  Post-emerge Herbicidal Activity RICE: 25
[13]; 63 g ai/ha
  Post-emerge Herbicidal Activity CORN: 10
[13]; 250 g ai/ha
  Post-emerge Herbicidal Activity CORN: 10
[14]; 63 g ai/ha
  Post-emerge Herbicidal Activity DIGSA: 0
[14]; 250 g ai/ha
  Post-emerge Herbicidal Activity DIGSA: 10
[15]; 63 g ai/ha
  Post-emerge Herbicidal Activity SETVI: 10
[15]; 250 g ai/ha
  Post-emerge Herbicidal Activity SETVI: 20
[16]; 63 g ai/ha
  Post-emerge Herbicidal Activity ECHCG: 0
[16]; 250 g ai/ha
  Post-emerge Herbicidal Activity ECHCG: 10
[17]; 63 g ai/ha
  Post-emerge Herbicidal Activity SORHA: 0
[17]; 250 g ai/ha
  Post-emerge Herbicidal Activity SORHA: 0
[18]; 63 g ai/ha
  Post-emerge Herbicidal Activity AMARE: 80
[18]; 250 g ai/ha
  Post-emerge Herbicidal Activity AMARE: 98
[19]; 63 g ai/ha
  Post-emerge Herbicidal Activity CASOB: 80
[19]; 250 g ai/ha
  Post-emerge Herbicidal Activity CASOB: 95
[20]; 63 g ai/ha
  Post-emerge Herbicidal Activity CHEAL: 100
[20]; 250 g ai/ha
  Post-emerge Herbicidal Activity CHEAL: 100
[21]; 63 g ai/ha
  Post-emerge Herbicidal Activity ABUTH: 100
[21]; 250 g ai/ha
  Post-emerge Herbicidal Activity ABUTH: 100
[22]; 63 g ai/ha
  Post-emerge Herbicidal Activity IPOHE: 75
[22]; 250 g ai/ha
  Post-emerge Herbicidal Activity IPOHE: 90
